{"source": "paper PMC10644342", "about": "“Improved Antibacterial Activity of 1,3,4-Oxadiazole-Based Compounds That Restrict Staphylococcus aureus Growth Independent of LtaS Function” (ACS Infectious Diseases, 2023)", "key": {"MRSA strain LAC": {"test_system": "MRSA strain LAC", "experiment": "Minimum bactericidal concentration", "type": "cell-based, Staphylococcus aureus", "conditions": "for classification bactericidal/bacteriostatic: time kill and MBC", "description": "For an antibiotic with an MBC ≤ 4×, the MIC was considered to be bactericidal, whereas with an MBC > 4×, the MIC was considered to be bacteriostatic.[24] […] Percentage survival was calculated according to the starting inoculum of 5 × 10^5 cfu at time 0 h."}, "[1]": {"test_system": "S. aureus wild type, clpX, ltaS, tarO mutants and ltaS overexpression strains", "experiment": "MIC against LtaS deletion and overexpression strains", "type": "cell-based, Staphylococcus aureus", "description": "S. aureus, S. epidermidis, E. faecalis, and E. faecium strains were routinely cultivated on tryptic soy agar (TSA) and grown for 18 h at 37 °C. S. aureus single colonies were subsequently transferred into 2 mL of tryptic soy broth (TSB) and grown for a further 18 h at 37 °C while being shaken at 180 rpm. S. pyogenes, S. agalactiae, and S. dysgalactiae strains were routinely cultured on TSA supplemented with 5% sheep blood and grown for 18 h at 37 °C with 5% CO2. E. coli was grown in LB broth at 37 °C. For LtaS-deficient strains, TSB was supplemented with 0.5 M NaCl to provide an osmotically balanced environment and instead grown at 30 °C. For strains harboring the pRMC2 tetracycline inducible vector,[61] the growth medium was supplemented with 10 μg/mL chloramphenicol and […] anhydrotetracycline hydrochloride (Sigma). Phenylalanine-arginine β-naphthylamide (PAβN) (Sigma) was dissolved in sterile water.\nB. subtilis, staphylococcal, and enterococcal strains were grown in Mueller Hinton broth (MHB), while streptococcal strains were grown in MHB supplemented with 5% laked horse blood. All strains were grown for 18 h at 37 °C. The overnight cultures were subsequently subcultured 1:200 and grown to the exponential phase (OD600nm = 0.5–0.6) in fresh broth. 1771 and its derivatives 9–14 were reconstituted in DMSO and further diluted by performing a 1:2 serial dilution ranging between 256 and 0.125 μg/mL in a 96-well microtiter plate. One hundred microliters of 0.5 McFarland standardized inoculum (approximately equal to 5 × 10^5 cfu) were then dispensed into each well in the 96-well microtiter plate. The plate was incubated for 18 h at 37 °C.\nFor overexpression studies, full-length ltaS was amplified by PCR using MRSA strian LAC genomic DNA, primer pair LtaS-FW: 5′-[…]-3′ and LtaS-RV: 5′-[…]-3′, and Phusion High-Fidelity DNA Polymerase (Thermo Fisher). The resulting PCR product was cloned into the tetracycline inducible plasmid pRMC2 using SacI and KpnI restriction sites and T4 ligase (NEB). The cloned vector was subsequently transformed into RN4220 followed by LAC through electroporation."}, "erythrocytes": {"test_system": "erythrocytes", "experiment": "Erythrocyte toxicity (hemolysis) assay", "type": "cell-based, human", "conditions": "concentrations as high as 256 μg/mL, 1 h, 37 °C", "description": "Consent was collected from three healthy volunteers prior to blood collection and in accordance with the recommendations of the University of Bath, Research Ethics Approval Committee for Health Blood (EP 18/19108). Blood was collected by venepuncture and drawn directly into K2-EDTA-coated Vacutainer tubes (BD Biosciences) to prevent coagulation. The blood was then pelleted at 500g for 10 min at 4 °C, and the plasma layer was removed. The remaining hematocrit was resuspended to the original volume in a sterile saline solution. This procedure was repeated three times and finally resuspended in sterile PBS and diluted to 2% (v/v). One hundred microlitres of the resulting blood suspension were aliquoted in a 96-well microtire plate. An equal volume of either 1771 or 13 (diluted in PBS) was then added at a concentration range of 256–2 μg/mL and incubated for 1 h at 37 °C. Blood incubated with PBS served as a negative control, and total hemolysis (positive control) was provided by incubating the cells in 2% (v/v) Triton X-100. Following incubation, the 96-well microtire plate was pelleted at 500g for 5 min, and 100 μL of supernatant was transferred into a new plate. Absorbance at abs404nm was measured using a Sunrise plate reader, and percentage hemolysis was calculated according to controls."}, "[2]": {"test_system": "S. epidermidis strain RP62A", "experiment": "Biofilm prevention, crystal violet assay", "type": "cell-based, Staphylococcus epidermidis", "conditions": "for concentration causing a 50% reduction in biofilm formation: 24 h", "description": "An indication of the biofilm prevention capabilities of 1771 and its derivatives 9–14 was achieved through the application of the crystal violet assay. S. aureus strain SH1000 and S. epidermidis strain RP62A were used, as they are strong biofilm formers. Overnight cultures were diluted 1:200 in fresh TSB containing 0.5% glucose (TSB-G), and 100 μL was added to individual wells in a 96-well microtiter plate. One hundred microliters of 1771 and 9–14 were diluted in TSB-G and added to bacteria at a final concentration ranging from 256 to 0.25 μg/mL with subsequent incubation for 24 h at 37 °C in a static incubator. Following incubation, biofilms were washed four times with ddH2O before being stained with 150 μL of 0.1% crystal violet for 30 min at room temperature. Following a further four washes in ddH2O, wells were resuspended in 200 μL of 7% acetic acid. The absorbance intensity of the crystal violet was measured at abs595nm in a Sunrise plate reader. Biomass formed was measured as a percentage of the no-compound control."}, "S. aureus": {"test_system": "S. aureus", "experiment": "Checkerboard MIC analysis with antistaphylococcal antibiotics (FIC index)", "type": "cell-based", "conditions": "lowest possible value", "description": "Antibiotic combination 1771 Compound 13\nFigure S1. Checkerboard analysis of 1771 and compound 13 in combination with clinically relevant antibiotics. Checkerboard analysis was repeated twice for each antibiotic combination, and the mean bacterial growth (OD 600nm) plotted as a heat map with 1771/compound 13 concentration of the y-axis and test antibiotic concentration on the x axis.\nFIC indexes were calculated for each combination and the lowest possible value presented. […]\nSupplementary Materials and Methods\nSynergistic activity with clinically relevant antibiotics\nThe synergistic ability of 1771 and 13 was achieved using the chequerboard micro-broth dilution method. Antibiotic partners tested included: oxacillin, daptomycin, vancomycin, gentamicin, and linezolid with starting concentrations of 256 µg/ml, 8 µg/ml, 8 µg/ml, 4 µg/ml, and 8 µg/ml respectively. Overnight cultures were sub-cultured 1:200 in fresh MHB and grown to optical density of OD600nm of 0.5-0.6 and prepared according to the MIC analysis. Following an 18 h incubation at 37 °C the sum of the fractional inhibitory […]\nusing the equation ΣFIC = FICA +FICB = (MICA in combination with B/MICA) + (MICB in combination with A/MICB). The resulting value was interpreted according to the following rules: synergistic (FIC ≤ 0.5), additive (FIC >0.5, <1) or indifferent (FIC ≥ 1 <4). […]"}, "[3]": {"conditions": "Staphylococcus aureus, 8325-4 (wild type), clpX set"}, "[4]": {"conditions": "Staphylococcus aureus, NEWMAN, Newman ΔtarO"}, "[5]": {"conditions": "Staphylococcus aureus, NEWMAN, Newman ΔtarO pRMC2 (empty vector)"}, "[6]": {"conditions": "Staphylococcus aureus, NEWMAN, Newman ΔtarO pltaS (ltaS overexpression)"}, "[7]": {"conditions": "Staphylococcus aureus, SA564 (wild type)"}, "[8]": {"conditions": "Staphylococcus aureus, SA564 clpX knockout mutant"}}, "data": [{"smiles": "O=C(COC(=O)Cc1coc2ccc3ccccc3c12)Nc1nnc(-c2ccc(S(F)(F)(F)(F)F)cc2)o1", "note": "[Compound 13, 2-Oxo-2-((5-(4-(pentafluoro-l6-sulfaneyl)phenyl)-1,3,4-oxadiazol-2-yl)amino)ethyl 2-(Naphtho[2,1-b]furan-1-yl)acetate]", "values": [{"measurement": "minimal bactericidal concentration (MBC)", "setting": "MRSA strain LAC; 8 to 128 μg/mL (up to 256× MIC)", "result": "could not be elucidated"}, {"measurement": "classification bactericidal/bacteriostatic", "setting": "MRSA strain LAC", "result": "bacteriostatic"}, {"measurement": "MIC", "setting": "[1]; 8325-4 (wild type), clpX set", "result": "0.5 to 1", "unit": "µg/mL"}, {"measurement": "MIC", "setting": "[1]; SA564clpX knockout and ltaSH476Q mutant", "result": 0.25, "unit": "µg/mL"}, {"measurement": "MIC", "setting": "[1]; [3]", "result": "0.5 to 1", "unit": "µg/mL"}, {"measurement": "MIC", "setting": "[1]; Staphylococcus aureus, 8325-4 clpX knockout and ltaS382STOP mutant", "result": 0.25, "unit": "µg/mL"}, {"measurement": "MIC", "setting": "[1]; Staphylococcus aureus, 8325-4 clpX knockout mutant", "result": 0.25, "unit": "µg/mL"}, {"measurement": "MIC", "setting": "[1]; Staphylococcus aureus, JE2 clpXI265E mutant", "result": 0.25, "unit": "µg/mL"}, {"measurement": "MIC", "setting": "[1]; Staphylococcus aureus, NEWMAN", "result": 1, "unit": "µg/mL"}, {"measurement": "MIC", "setting": "[1]; [4]", "result": 1, "unit": "µg/mL"}, {"measurement": "MIC", "setting": "[1]; [5]", "result": 1, "unit": "µg/mL"}, {"measurement": "MIC", "setting": "[1]; [6]", "result": 1, "unit": "µg/mL"}, {"measurement": "MIC", "setting": "[1]; [7]", "result": 0.25, "unit": "µg/mL"}, {"measurement": "MIC", "setting": "[1]; [8]", "result": 0.25, "unit": "µg/mL"}, {"measurement": "erythrocyte lysis", "setting": "erythrocytes", "result": "neither caused any lysis"}, {"measurement": "biofilm prevention compared with 1771", "setting": "[2]", "result": "better than 1771"}, {"measurement": "concentration causing a 50% reduction in biofilm formation", "setting": "[2]", "result": 0.25, "unit": "µg/mL"}, {"measurement": "FIC index", "setting": "S. aureus; combination with daptomycin", "result": 0.75}, {"measurement": "FIC index", "setting": "S. aureus; combination with gentamicin", "result": 0.75}, {"measurement": "FIC index", "setting": "S. aureus; combination with linezolid", "result": 0.515}, {"measurement": "FIC index", "setting": "S. aureus; combination with oxacillin", "result": 0.75}, {"measurement": "FIC index", "setting": "S. aureus; combination with vancomycin", "result": 1}]}, {"smiles": "O=C(COC(=O)Cc1coc2ccc3ccccc3c12)Nc1nnc(-c2ccccc2)o1", "note": "[Compound 1771, 2-Oxo-2-((5-phenyl-1,3,4-oxadiazol-2-yl)amino)ethyl 2-(Naphtho[2,1-b]furan-1-yl)acetate, reference compound]", "values": [{"measurement": "classification bactericidal/bacteriostatic", "setting": "MRSA strain LAC", "result": "bacteriostatic"}, {"measurement": "MIC", "setting": "[1]; [3]", "result": 16, "unit": "µg/mL"}, {"measurement": "MIC", "setting": "[1]; Staphylococcus aureus, JE2 (wild type)", "result": 16, "unit": "µg/mL"}, {"measurement": "MIC", "setting": "[1]; Staphylococcus aureus, JE2 clpXI265E and ltaS339STOP mutant", "result": 16, "unit": "µg/mL"}, {"measurement": "MIC", "setting": "[1]; Staphylococcus aureus, NEWMAN", "result": 16, "unit": "µg/mL"}, {"measurement": "MIC", "setting": "[1]; [4]", "result": 16, "unit": "µg/mL"}, {"measurement": "MIC", "setting": "[1]; [5]", "result": 16, "unit": "µg/mL"}, {"measurement": "MIC", "setting": "[1]; [6]", "result": 16, "unit": "µg/mL"}, {"measurement": "MIC", "setting": "[1]; [7]", "result": 16, "unit": "µg/mL"}, {"measurement": "MIC", "setting": "[1]; Staphylococcus aureus, SA564clpX knockout and ltaSH476Q mutant", "result": 16, "unit": "µg/mL"}, {"measurement": "MIC", "setting": "[1]; [8]", "result": 16, "unit": "µg/mL"}, {"measurement": "erythrocyte lysis", "setting": "erythrocytes", "result": "neither caused any lysis"}, {"measurement": "concentration causing a 50% reduction in biofilm formation", "setting": "[2]", "result": 8, "unit": "µg/mL"}, {"measurement": "FIC index", "setting": "S. aureus; combination with daptomycin", "result": 0.625}, {"measurement": "FIC index", "setting": "S. aureus; combination with gentamicin", "result": 0.375}, {"measurement": "FIC index", "setting": "S. aureus; combination with linezolid", "result": 1}, {"measurement": "FIC index", "setting": "S. aureus; combination with oxacillin", "result": 0.75}, {"measurement": "FIC index", "setting": "S. aureus; combination with vancomycin", "result": 1}]}]}
